Source: patent US9102688B2, “Sulfonaminoquinoline hepcidin antagonists” (Vifor (International) AG, priority 2011, dated 2015)

The molecules below were run against T1, human ferroportin (Homo sapiens, UniProt Q9NP59) (assay: ferroportin internalization assay (inhibition of hepcidin-induced internalization of Fpn)). Conditions: MDCK-FPN-HaloTag cells, 100 nM hepcidin, overnight incubation; concentration range from 0.04 to 40 μM.
T1 construct: expressed in transfected cells
T1 sequence (Q9NP59 1-571): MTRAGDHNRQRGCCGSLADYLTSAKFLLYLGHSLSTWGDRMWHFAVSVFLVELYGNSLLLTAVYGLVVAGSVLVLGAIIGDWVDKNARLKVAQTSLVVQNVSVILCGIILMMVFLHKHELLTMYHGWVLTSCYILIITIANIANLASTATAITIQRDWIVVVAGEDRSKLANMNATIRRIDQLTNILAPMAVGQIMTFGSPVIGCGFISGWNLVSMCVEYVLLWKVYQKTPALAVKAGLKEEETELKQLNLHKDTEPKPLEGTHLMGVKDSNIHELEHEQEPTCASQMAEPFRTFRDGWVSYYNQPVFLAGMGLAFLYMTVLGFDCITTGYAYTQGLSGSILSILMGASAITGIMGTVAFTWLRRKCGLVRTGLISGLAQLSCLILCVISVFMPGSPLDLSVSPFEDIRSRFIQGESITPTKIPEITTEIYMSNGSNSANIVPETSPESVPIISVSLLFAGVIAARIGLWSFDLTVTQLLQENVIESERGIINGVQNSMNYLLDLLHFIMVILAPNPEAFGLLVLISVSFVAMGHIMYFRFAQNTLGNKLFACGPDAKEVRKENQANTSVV
Type: cell-based
Procedure: The hepcidin-antagonistic action of the sulfonaminoquinoline compounds of the present invention was determined by means of the “ferroportin internalization assay” described in the following.
Organic compounds of low molecular weight which counteract the biological actions of hepcidin on its receptor, the iron exporter ferroportin (Fpn), were identified on the basis of their ability to inhibit hepcidin-induced internalization of Fpn in living cells. For this purpose, a stable cell line (Madin-Darby canine kidney, MDCK) was produced which constitutively expresses human ferroportin fused recombinantly at its C terminus with a fluorescent reporter protein (HaloTag®, Promega Corp.). The internalization of Fpn was monitored by labelling these cells with fluorescent ligands (HaloTag®-TMR, tetramethylrhodamine) which join covalently on to the HaloTag reporter gene fused with the Fpn. […] Optimized image analysis algorithms were used to ascertain the cell surface and to quantify the corresponding membrane fluorescence associated with the Fpn-HaloTag fusion protein. This assay allows a quantitative image-based analysis in order to quickly evaluate compounds which can block hepcidin-induced internalization of Fpn. This assay is a direct in vitro pendant of the in vivo action mechanism proposed for medicament candidates and is therefore suitable as an initial assay with a high throughput for identifying compounds which counteract the action of hepcidin on its receptor ferroportin.
• 7,500 cells per well (MDCK-FPN-HaloTag) were transinoculated in 50 μl of DMEM medium (Dulbeccos Modified Eagle Medium with 10% foetal bovine serum (FBS), which contained 1% penicillin, 1% streptomycin and 450 μg/ml of G-418) in microtitre plates with 384 wells (384 Cell carrier plates, Perkin Elmer, cat. no. 6007430), followed by incubation overnight at 37° C./5% CO2. • The volume of the medium was reduced to 10 μl, and 10 μl of 5 μM HaloTag-TMR ligands (Promega, cat. no. G 8251) were added in DMEM medium in order to stain the Fpn-HaloTag fusion protein. • 15 min incubation at 37° C./5% CO2 • The HaloTag-TMR ligand was removed and the cells were washed with fresh DMEM medium and the volume was reduced to 20 μl of DMEM medium. • 3 μl per well of a solution of the test compound (dissolved DMSO) were added ([…]). • 7 μl of […] hepcidin (Peptides International, cat. no. PLP-4392-s, 100 μM stock solution diluted in water in DMEM medium) were added per well up to a final hepcidin concentration of 100 nM. • The cells were incubated overnight at 37° C./5% CO2. • The cells were fixed by adding paraformaldehyde (PFA, Electron Microscopy Sciences, cat. no. 15710-S) directly to the cells up to a final concentration of 4%, followed by incubation at room temperature for 15-20 minutes. • The PFA solution was removed and the cells were washed with PBS (phosphate-buffered saline solution), in each case 30 μl remaining in the plate. • 20 μl of Draq5 (Biostatus, cat. no. DR 51000) were added up to a final concentration of 2.5 μM in order to stain the cell nuclei, and the plates were sealed with a foil plate seal. • The plates were analysed with the Opera Plate Imager (Opera Confocal Plate Imager, Perkin Elmer) with 7 images per well; 440 ms exposure time per image, […] focal point height.

IC50	Compound
6400 nM	COc1cc(NS(=O)(=O)c2ccccc2)c2ncccc2c1 [Example 23, N-(6-Methoxy-quinolin-8-yl)-benzenesulfonamide]
1580 nM	COc1ccc2c(c1)-c1ccc3cccnc3c1NS2(=O)=O [Example 105, 9-Methoxy-5H-6-thia-4,5-diaza-chrysene 6,6-dioxide]
720 nM	O=S(=O)(Nc1cccc2cccnc12)c1cccc(C(F)(F)F)c1 [Example 44, N-Quinolin-8-yl-3-trifluoromethyl-benzenesulfonamide]
2900 nM	O=[N+]([O-])c1ccccc1S(=O)(=O)Nc1cccc2cccnc12 [Example 6, 2-Nitro-N-quinolin-8-yl-benzenesulfonamide]
1500 nM	COc1cccc(S(=O)(=O)Nc2cccc3cccnc23)c1 [Example 21, 3-Methoxy-N-quinolin-8-yl-benzenesulfonamide]
380 nM	Cc1ccc(S(=O)(=O)Nc2cccc3cccnc23)nc1 [Example 227, 5-Methyl-pyridine-2-sulfonic acid quinolin-8-ylamide]
307 nM	O=C(Nc1ccccc1S(=O)(=O)Nc1cccc2cccnc12)C(F)(F)F [Example 49, 2,2,2-Trifluoro-N-[2-(quinolin-8-ylsulfamoyl)-phenyl]-acetamide]
920 nM	O=[N+]([O-])c1cc(F)ccc1S(=O)(=O)Nc1cccc2cccnc12 [Example 30, 4-Fluoro-2-nitro-N-quinolin-8-yl-benzenesulfonamide]
8000 nM	O=S(=O)(Nc1cccc2cccnc12)c1ccccc1Cl [Example 11, 2-Chloro-N-quinolin-8-yl-benzenesulfonamide]
1090 nM	O=S(=O)(Nc1cc(OC(F)(F)F)cc2cccnc12)c1ccccn1 [Example 235, Pyridine-2-sulfonic acid (6-trifluoromethoxy-quinolin-8-yl)-amide]
1140 nM	O=S(=O)(Nc1cccc2cccnc12)c1c(F)cccc1F [Example 64, 2,6-Difluoro-N-quinolin-8-yl-benzenesulfonamide]
10000 nM	CC(C)C(=O)Nc1cc(C(F)(F)F)ccc1S(=O)(=O)Nc1cccc2cccnc12 [Example 61, N-[2-(Quinolin-8-ylsulfamoyl)-5-trifluoromethyl-phenyl]-isobutyramide]
1100 nM	Cc1ccc(NS(=O)(=O)c2ccccc2)c2ncccc12 [Example 90, N-(5-Methyl-quinolin-8-yl)-benzenesulfonamide]
1890 nM	O=S(=O)(Nc1cccc2cccnc12)c1ccccn1 [Example 85, Pyridine-2-sulfonic acid quinolin-8-ylamide]
49900 nM	Cc1ccc(S(=O)(=O)Nc2cccc3cccnc23)cc1 [Example 9, 4-Methyl-N-quinolin-8-yl-benzenesulfonamide]

The remaining lines, values behind:

Compound	IC50
CN1C(c2ccc(F)c(F)c2)c2ccc3cccnc3c2NS1(=O)=O (stereo not shown) [Example 392, 1-(3,4-Difluoro-phenyl)-2-methyl-1,4-dihydro-2H-3-thia-2,4,5-triaza-phenanthrene 3,3-dioxide]	250 nM
O=S1(=O)Nc2c(cc(Cl)c3cccnc23)-c2cc(N3CCC(O)CC3)ccc21 [Example 504, 1-(12-Chloro-6,6-dioxo-5,6-dihydro-6λ*6*-thia-4,5-diaza-chrysen-9-yl)-piperidin-4-ol]	1100 nM
O=C(c1ccc2c(c1)-c1cc(Cl)c3cccnc3c1NS2(=O)=O)N1CCC(O)C1 (stereo not shown) [Example 531, (12-Chloro-6,6-dioxo-5,6-dihydro-6λ*6*-thia-4,5-diaza-chrysen-9-yl)-(3-hydroxy-pyrrolidin-1-yl)-methanone]	15000 nM
COCCNC(=O)c1ccc2c(c1)-c1cc(Cl)c3cccnc3c1NS2(=O)=O [Example 528, 12-Chloro-6,6-dioxo-5,6-dihydro-6λ*6*-thia-4,5-diaza-chrysene-9-carboxylic acid (2-methoxy-ethyl)-amide]	3900 nM
O=C(c1ccc2c(c1)-c1cc(Cl)c3cccnc3c1NS2(=O)=O)N1CCOCC1 [Example 527, (12-Chloro-6,6-dioxo-5,6-dihydro-6λ*6*-thia-4,5-diaza-chrysen-9-yl)-morpholin-4-yl-methanone]	2740 nM
Cc1cc(F)ccc1C1c2ccc3cccnc3c2NS(=O)(=O)N1C (stereo not shown) [Example 395, 1-(4-Fluoro-2-methyl-phenyl)-2-methyl-1,4-dihydro-2H-3-thia-2,4,5-triaza-phenanthrene 3,3-dioxide]	1500 nM
O=S1(=O)Nc2c(cc(Br)c3cccnc23)-c2ccccc21 [Example 545, 12-Bromo-5H-6-thia-4,5-diaza-chrysene 6,6-dioxide]	12600 nM
O=S1(=O)Nc2c(cc(Cl)c3cccnc23)-c2cc(C(F)(F)F)ccc21 [Example 334, 12-Chloro-9-trifluoromethyl-5H-6-thia-4,5-diaza-chrysene 6,6-dioxide]	6250 nM
CN1C(c2ccc(F)c(Cl)c2)c2ccc3cccnc3c2NS1(=O)=O (stereo not shown) [Example 391, 1-(3-Chloro-4-fluoro-phenyl)-2-methyl-1,4-dihydro-2H-3-thia-2,4,5-triaza-phenanthrene 3,3-dioxide]	3700 nM
O=S1(=O)Nc2c(cc(F)c3cccnc23)-c2ccccc21 [Example 324, 12-Fluoro-5H-6-thia-4,5-diaza-chrysene 6,6-dioxide]	1390 nM
O=S1(=O)Nc2c(c(F)cc3cccnc23)-c2ccccc21 [Example 323, 11-Fluoro-5H-6-thia-4,5-diaza-chrysene 6,6-dioxide]	3570 nM
CN1C(c2ccc(F)c(CN3CCNCC3)c2)c2ccc3cccnc3c2NS1(=O)=O (stereo not shown) [Example 427, 1-(4-Fluoro-3-piperazin-1-ylmethyl-phenyl)-2-methyl-1,4-dihydro-2H-3-thia-2,4,5-triaza-phenanthrene 3,3-dioxide]	4490 nM
Cc1ccc(S(=O)(=O)Nc2c(Cl)cc(Cl)c3cccnc23)cc1 [Example 51, N-(5,7-Dichloro-quinolin-8-yl)-4-methyl-benzenesulfonamide]	79000 nM
Cc1ccc(S(=O)(=O)Nc2ccc(Cl)c3cccnc23)c(N)c1 [Example 79, 2-Amino-N-(5-chloro-quinolin-8-yl)-4-methyl-benzenesulfonamide]	1220 nM
Cc1cccc2c1S(=O)(=O)Nc1c-2ccc2cccnc12 [Example 335, 7-Methyl-5H-6-thia-4,5-diaza-chrysene 6,6-dioxide]	3880 nM
O=S(=O)(Nc1ccc(Cl)c2cccnc12)c1ccc(Cl)cc1F [Example 54, 4-Chloro-N-(5-chloro-quinolin-8-yl)-2-fluoro-benzenesulfonamide]	1380 nM
O=S1(=O)Nc2c(ccc3cccnc23)CN1c1ccccc1 [Example 113, 2-Phenyl-1,4-dihydro-2H-3-thia-2,4,5-triaza-phenanthrene 3,3-dioxide]	460 nM
O=S1(=O)Nc2c(cc(N3CCCC3)c3cccnc23)-c2ccccc21 [Example 553, 12-Pyrrolidin-1-yl-5H-6-thia-4,5-diaza-chrysene 6,6-dioxide]	4360 nM
Cc1cnc2c(NS(=O)(=O)c3ccc(C(F)(F)F)cc3N)cccc2c1 [Example 73, 2-Amino-N-(3-methyl-quinolin-8-yl)-4-trifluoromethyl-benzenesulfonamide]	3000 nM
